Test results from US6762181B1, “Aminomethylpyrrolidine derivatives having aromatic substituents” (Daiichi Pharmaceutical Co., Ltd., priority 1999, dated 2004).
Values after ≈ are worked out from the molar mass of the structure shown. Where two headings read alike, the source gives them in different places.

Legend:
Experiment in all cases: Antibacterial activity (MIC), Japan Society of Chemotherapy standard method
Format in all cases: cell-based
S. aureus 870307 = system: S. aureus 870307
Method: (§1) Antibacterial activities of the compounds of the invention were measured in accordance with the standard method specified by the Japan Society of Chemotherapy, with the results shown in the following table as MIC values (μg/ml). In this connection, MIC values of levofloxacin (LVFX), ciprofloxacin (CPFX) and 5-amino-7-[3-(R)-[1-(S)-aminoethyl]pyrrolidin-1-yl]-6-fluoro-1-[2-(S)-fluoro-1-(R)-cyclopropyl]-8-methyl-1,4-dihydro-4-oxoquinoline-3-carboxylic acid (control drug 1) described in WO 9623782 are also shown for the sake of comparison with the MIC values of the compounds of the invention.

Ps. aeruginosa 32121 = system: Ps. aeruginosa 32121
Method: as §1

E. coli NIHJ = system: E. coli NIHJ
Method: as §1

K. pneumoniae TYPE 1 = system: K. pneumoniae TYPE 1
Method: as §1

Str. pyrogenes G-36 = system: Str. pyrogenes G-36
Method: as §1

E. faecalis ATCC 19433 = system: E. faecalis ATCC 19433
Method: as §1

Ps. aeruginosa 32104 = system: Ps. aeruginosa 32104
Method: as §1

S. epidermidis 56500 = system: S. epidermidis 56500
Method: as §1

X. maltophilia IID 1275 = system: X. maltophilia IID 1275
Method: as §1

S. aureus FDA 209P = system: S. aureus FDA 209P
Method: as §1

Ser. marcescens 10100 = system: Ser. marcescens 10100
Method: as §1

S. flexneri 2A 5503 = system: S. flexneri 2A 5503
Method: as §1

Str. pneumoniae J24 = system: Str. pneumoniae J24
Method: as §1

Pr. Vulgaris O8601 = system: Pr. Vulgaris O8601
Method: as §1

[1] = Pseudomonas aeruginosa, 32121, Ps. aeruginosa 32121, read-out: MIC
[2] = Klebsiella pneumoniae, TYPE1, K. pneumoniae TYPE 1, read-out: MIC
[3] = Pseudomonas aeruginosa, 32104, Ps. aeruginosa 32104, read-out: MIC
[4] = Staphylococcus epidermidis, read-out: MIC
[5] = Stenotrophomonas maltophilia, IID1275, X. maltophilia IID 1275, read-out: MIC
[6] = Staphylococcus aureus, FDA209P, read-out: MIC
[7] = Serratia marcescens, 10100, Ser. marcescens 10100, read-out: MIC
[8] = Streptococcus pneumoniae, J24, Str. pneumoniae J24, read-out: MIC
[9] = Escherichia coli, read-out: MIC
[10] = Shigella flexneri, 2A5503, S. flexneri 2A 5503, read-out: MIC
[11] = Staphylococcus aureus, 870307, S. aureus 870307, read-out: MIC
[12] = Enterococcus faecalis, ATCC19433, E. faecalis ATCC 19433, read-out: MIC
[13] = Proteus vulgaris, read-out: MIC

SMILES	MIC (S. aureus 870307; S. aureus 870307)	MIC (Ps. aeruginosa 32121; [1])	MIC (E. coli NIHJ)	MIC (K. pneumoniae TYPE 1; [2])	MIC (Str. pyrogenes G-36)	MIC (E. faecalis ATCC 19433; E. faecalis ATCC 19433)	MIC (Ps. aeruginosa 32104; [3])	MIC (S. epidermidis 56500; [4])	MIC (X. maltophilia IID 1275; [5])	MIC (S. aureus FDA 209P; [6])	MIC (Ser. marcescens 10100; [7])	MIC (S. flexneri 2A 5503; S. flexneri 2A 5503)	MIC (Str. pneumoniae J24; [8])	MIC (Pr. Vulgaris O8601)	MIC (Ps. aeruginosa 32121; Ps. aeruginosa 32121)	MIC (E. coli NIHJ; [9])	MIC (K. pneumoniae TYPE 1; K. pneumoniae TYPE 1)	MIC (Ps. aeruginosa 32104; Ps. aeruginosa 32104)	MIC (S. epidermidis 56500)	MIC (S. flexneri 2A 5503; [10])	other results
Nc1c(F)c(N2CC[C@@H](C(N)c3ccco3)C2)c(F)c2c1c(=O)c(C(=O)O)cn2[C@@H]1C[C@@H]1F (stereo partly drawn) [Example 11, 5-Amino-7-{3-(R)-[1-amino-1-(2-furyl)methyl]-1-pyrrolidinyl}-6,8-difluoro-1-[2-(S)-fluoro-1-(R)-cyclopropyl]-1,4-dihydro-4-oxoquinoline-3-carboxylic acid]	0.025 µg/mL (≈ 0.0541 µM)	0.05 µg/mL (≈ 0.108 µM)	≦0.003 μg/ml	0.025 µg/mL (≈ 0.0541 µM)	0.013 µg/mL (≈ 0.0281 µM)	0.025 µg/mL (≈ 0.0541 µM)	0.2 µg/mL (≈ 0.432 µM)	≤ 0.003 µg/mL	0.05 µg/mL (≈ 0.108 µM)	≤ 0.003 µg/mL	0.05 µg/mL (≈ 0.108 µM)	≦0.003 μg/ml	0.006 µg/mL (≈ 0.013 µM)	0.05 µg/mL (≈ 0.108 µM)							
Nc1c(F)c(N2CC[C@@H](C(N)c3ccco3)C2)c(F)c2c1c(=O)c(C(=O)O)cn2[C@@H]1C[C@@H]1F (stereo partly drawn) [Example 12, 5-Amino-7-{3-(R)-[1-amino-1-(2-furyl)methyl]-1-pyrrolidinyl}-6,8-difluoro-1-[2-(S)-fluoro-1-(R)-cyclopropyl]-1,4-dihydro-4-oxoquinoline-3-carboxylic acid]	≦0.003 μg/ml				≦0.003 μg/ml	0.006 µg/mL (≈ 0.013 µM)								0.013 µg/mL (≈ 0.0281 µM)	0.05 µg/mL (≈ 0.108 µM)	≤ 0.003 µg/mL	0.025 µg/mL (≈ 0.0541 µM)	0.1 µg/mL (≈ 0.216 µM)	≦0.003 μg/ml	≤ 0.003 µg/mL	MIC (X. maltophilia IID 1275; X. maltophilia IID 1275): 0.05 µg/mL (≈ 0.108 µM); MIC (S. aureus FDA 209P): ≦0.003 μg/ml; MIC (Ser. marcescens 10100; Ser. marcescens 10100): 0.025 µg/mL (≈ 0.0541 µM); MIC (Str. pneumoniae J24; Str. pneumoniae J24): ≦0.003 μg/ml
Nc1c(F)c(N2CC[C@@H](C(N)c3ccccn3)C2)c(F)c2c1c(=O)c(C(=O)O)cn2[C@@H]1C[C@@H]1F (some centres unmarked) [Example 16]	0.006 µg/mL (≈ 0.0127 µM)		≦0.003 μg/ml		≦0.003 μg/ml	0.013 µg/mL (≈ 0.0275 µM)						≦0.003 μg/ml		0.025 µg/mL (≈ 0.0528 µM)	0.05 µg/mL (≈ 0.106 µM)		0.025 µg/mL (≈ 0.0528 µM)	0.2 µg/mL (≈ 0.422 µM)	≦0.003 μg/ml		MIC (X. maltophilia IID 1275; X. maltophilia IID 1275): 0.1 µg/mL (≈ 0.211 µM); MIC (S. aureus FDA 209P): ≦0.003 μg/ml; MIC (Ser. marcescens 10100; Ser. marcescens 10100): 0.1 µg/mL (≈ 0.211 µM); MIC (Str. pneumoniae J24; Str. pneumoniae J24): ≦0.003 μg/ml
Cc1c(N2CC[C@@H](C(N)c3ccccn3)C2)c(F)c(N)c2c(=O)c(C(=O)O)cn([C@@H]3C[C@@H]3F)c12 (stereo partly drawn) [Example 17, 5-Amino-7-{3-(R)-[1-amino-1-(2-pyridyl)methyl]-1-pyrrolidiny}-6-fluoro-1-[(1R, 2S)-2-fluorocyclopropyl)-1,4-dihydro-8-methyl-4-oxoquinoline-3-carboxylic acid]	0.013 µg/mL (≈ 0.0277 µM)		≦0.003 μg/ml		≦0.003 μg/ml	0.025 µg/mL (≈ 0.0532 µM)						0.006 µg/mL (≈ 0.0128 µM)		0.05 µg/mL (≈ 0.106 µM)	0.1 µg/mL (≈ 0.213 µM)		0.05 µg/mL (≈ 0.106 µM)	0.2 µg/mL (≈ 0.426 µM)	≦0.003 μg/ml		MIC (X. maltophilia IID 1275; X. maltophilia IID 1275): 0.05 µg/mL (≈ 0.106 µM); MIC (S. aureus FDA 209P): ≦0.003 μg/ml; MIC (Ser. marcescens 10100; Ser. marcescens 10100): 0.1 µg/mL (≈ 0.213 µM); MIC (Str. pneumoniae J24; Str. pneumoniae J24): ≦0.003 μg/ml
Nc1c(F)c(N2CC[C@@H](C(N)c3cccnc3)C2)c(F)c2c1c(=O)c(C(=O)O)cn2[C@@H]1C[C@@H]1F (stereo partly drawn) [Example 19, 5-Amino-7-(3-(R)-[1-amino-1-(3-pyridyl)methyl]-1-pyrrolidinyl]-6,8-difluoro-1-[(1R, 2S)-2-fluorocyclopropyl]-1,4-dihydro-4-oxoquinoline-3-carboxylic acid]		0.05 µg/mL (≈ 0.106 µM)		0.025 µg/mL (≈ 0.0528 µM)			0.2 µg/mL (≈ 0.422 µM)	≤ 0.003 µg/mL	0.1 µg/mL (≈ 0.211 µM)	≤ 0.003 µg/mL	0.1 µg/mL (≈ 0.211 µM)		≤ 0.003 µg/mL			≤ 0.003 µg/mL				≤ 0.003 µg/mL	MIC (S. aureus 870307; [11]): 0.025 µg/mL (≈ 0.0528 µM); MIC (Str. pyrogenes G-36; read-out: MIC): ≤ 0.003 µg/mL; MIC (E. faecalis ATCC 19433; [12]): 0.025 µg/mL (≈ 0.0528 µM); MIC (Pr. Vulgaris O8601; [13]): 0.025 µg/mL (≈ 0.0528 µM)
Cc1c(N2CC[C@@H](C(N)c3cccnc3)C2)c(F)c(N)c2c(=O)c(C(=O)O)cn([C@@H]3C[C@@H]3F)c12 (stereo partly drawn) [Example 20, 5-Amino-7-(3-(R)-[1-amino-1-(3-pyridyl)methyl]-1-pyrrolidinyl)-6-fluoro-1-[(1R,2S)-2-fluorocyclopropyl]-1,4-dihydro-8-methyl-4-oxoquinoline-3-carboxylic acid]		0.05 µg/mL (≈ 0.106 µM)		0.05 µg/mL (≈ 0.106 µM)			0.2 µg/mL (≈ 0.426 µM)	≤ 0.003 µg/mL	0.2 µg/mL (≈ 0.426 µM)	≤ 0.003 µg/mL	0.1 µg/mL (≈ 0.213 µM)		≤ 0.003 µg/mL			0.006 µg/mL (≈ 0.0128 µM)				0.006 µg/mL (≈ 0.0128 µM)	MIC (S. aureus 870307; [11]): 0.05 µg/mL (≈ 0.106 µM); MIC (Str. pyrogenes G-36; read-out: MIC): ≤ 0.003 µg/mL; MIC (E. faecalis ATCC 19433; [12]): 0.025 µg/mL (≈ 0.0532 µM); MIC (Pr. Vulgaris O8601; [13]): 0.025 µg/mL (≈ 0.0532 µM)
C[C@H]1COc2c(N3CCN(C)CC3)c(F)cc3c(=O)c(C(=O)O)cn1c23 [LVFX, levofloxacin, reference compound]		0.1 µg/mL (≈ 0.277 µM)		0.1 µg/mL (≈ 0.277 µM)			0.2 µg/mL (≈ 0.553 µM)	0.39 µg/mL (≈ 1.08 µM)	0.39 µg/mL (≈ 1.08 µM)	0.2 µg/mL (≈ 0.553 µM)	0.1 µg/mL (≈ 0.277 µM)		0.78 µg/mL (≈ 2.16 µM)			0.013 µg/mL (≈ 0.036 µM)				0.025 µg/mL (≈ 0.0692 µM)	MIC (S. aureus 870307; [11]): > 6.25 µg/mL; MIC (Str. pyrogenes G-36; read-out: MIC): 0.2 µg/mL (≈ 0.553 µM); MIC (E. faecalis ATCC 19433; [12]): 0.78 µg/mL (≈ 2.16 µM); MIC (Pr. Vulgaris O8601; [13]): 0.13 µg/mL (≈ 0.36 µM)
